Test results reported in US8993585B2, “Cyclic amine substituted pyrimidinediamines as PKC inhibitors” (Rigel Pharmaceuticals, Inc., priority 2007, dated 2015).

These molecules were tested on Human primary T cells (assay: IL-2 ELISA, Human Primary T Cell, Anti-CD3+CD28+ (Example 3)). Settings: Homo sapiens, T-cell, 24 h, anti-CD3+CD28 stimulation.
Type: cell-based
Summary of the method: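 IL-2 was read by ELISA after stimulation on wells pre-coated with 1 ug/ml αCD3 and 5 μg/ml αCD28. Before this, 100,000 human primary T cells per well spent 1 h at 37 °C with test compound in Yssel's medium. The counter-screen replaced antibody stimulation with PMA (0.5 ng/ml final) and ionomycin (0.1 uM final).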

Row | IC50 [nM] | Compound
1 | 2160 | CN1C(C)(C)CC(Nc2nc(Nc3cc4c(cc3Br)OC(F)(F)O4)ncc2F)CC1(C)C [II-122]
2 | 15800 | CC1(C)CC(Nc2nc(Nc3ccc4c(c3)oc(=O)n4CCN3CCOCC3)ncc2C#N)CC(C)(C)N1 [II-170]
3 | 255 | CCN1C(=O)C(F)(F)Oc2cc(Nc3ncc(C#N)c(NC4CC(C)(C)N(C)C(C)(C)C4)n3)cnc21 [II-65]
4 | 373 | CN1C(=O)C(C)(C)Oc2cc(Nc3ncc(F)c(NC4CC(C)(C)N(C)C(C)(C)C4)n3)cnc21 [II-54]
5 | 835 | CN1C(C)(C)CC(Nc2nc(Nc3nc(-c4ccc(Cl)cc4)cs3)ncc2F)CC1(C)C [II-15]
6 | 37300 | CN1C(C)(C)CC(Nc2nc(Nc3nc(C#N)c(C#N)[nH]3)ncc2F)CC1(C)C [II-22]
7 | 750 | CN1C(C)(C)CC(Nc2nc(Nc3ccc4c(c3)oc(=O)n4CCF)ncc2F)CC1(C)C [II-172]
8 | 590 | CN1C(C)(C)CC(Nc2nc(Nc3nc(-c4ccc(C(F)(F)F)cc4)cs3)ncc2F)CC1(C)C [II-140]
9 | 550 | CN1C(=O)C(F)(F)Oc2cc(Nc3ncc(Cl)c(NC4CC(C)(C)N(C)C(C)(C)C4)n3)ccc21 [II-28]
10 | 4390 | Cc1cc(NC2CC(C)(C)N(C)C(C)(C)C2)nc(Nc2ccc(N3CCN(S(C)(=O)=O)CC3)c(Cl)c2)n1 [IV-3]
11 | 3450 | CCN(CC)C1CCC(Nc2nc(Nc3ccc(N4CCN(S(C)(=O)=O)CC4)c(C(F)(F)F)c3)ncc2F)CC1 (stereo not shown) [IV-9, N4-(4-Diethylamino)cyclohexyl-5-fluoro-N2-[4-(4-methylsulfonylpiperazino)-3-trifluoromethyl]phenyl-2,4-pyrimidinediamine]
12 | 845 | CN1C(C)(C)CC(Nc2nc(Nc3nc4ccc([N+](=O)[O-])cc4s3)ncc2F)CC1(C)C [II-17]
13 | 91.8 | CCN1C(=O)C(C)(C)Oc2cc(Nc3ncc(C(F)(F)F)c(NC4CC(C)(C)N(C)C(C)(C)C4)n3)ccc21 [II-50]
14 | 10900 | COc1cnc(Nc2ccc3c(c2)OCCO3)nc1NC1CC(C)(C)N(C)C(C)(C)C1 [II-129]
15 | 77.2 | CCN1C(=O)C(C)(C)Sc2cc(Nc3ncc(F)c(NC4CC(C)(C)N(C)C(C)(C)C4)n3)ccc21 [II-63]
16 | 4510 | CCN(CC)C1CCC(Nc2nc(Nc3cccc(C#N)c3)ncc2F)CC1 (stereo not shown) [IV-6, N2-(3-Cyano)phenyl-N4-(4-diethylamino)cyclohexyl-5-fluoro-2,4-pyrimidinediamine]
17 | 990 | CN1C(=O)c2ccc(Nc3ncc(F)c(NC4CC(C)(C)N(C)C(C)(C)C4)n3)cc2C1=O [II-149]
18 | 3660 | CN1C(C)(C)CC(Nc2nc(Nc3ccc(NCc4ccccc4)cn3)ncc2F)CC1(C)C [II-85]
19 | 3600 | CCN(CC)c1ccc(-c2csc(Nc3ncc(F)c(NC4CC(C)(C)N(C)C(C)(C)C4)n3)n2)cc1 [II-135]

More lines, now with the values behind:

Row | Compound | IC50 [nM]
20 | COc1cc(Nc2ncc(F)c(N(Cc3ccc(-c4ccccc4)cc3)C3CC(C)(C)N(C)C(C)(C)C3)n2)cc(OC)c1 [Compound I-317] | 2420
21 | CN1C(C)(C)CC(Nc2nc(Nc3cccc(OC(F)(F)F)c3)ncc2Cl)CC1(C)C [Compound I-240] | 683
22 | CN1C(C)(C)CC(N(Cc2ccccc2)c2nc(Nc3ccc(N4CCN(S(C)(=O)=O)CC4)c(C(F)(F)F)c3)ncc2F)CC1(C)C [Compound I-310] | 1410
23 | COc1cc(Nc2ncc(F)c(N(Cc3ccc4ccccc4n3)C3CC(C)(C)N(C)C(C)(C)C3)n2)cc(OC)c1 [Compound I-322] | 5790
24 | COc1cc(Nc2ncc(F)c(NC3CC(C)(C)N(C)C(C)(C)C3)n2)cc(OCCN2CCCC2)c1 [Compound I-434] | 270
25 | Cc1ccc(Nc2ncc(F)c(N(Cc3ccc(-c4ccccc4C#N)cc3)C3CC(C)(C)N(C)C(C)(C)C3)n2)cc1C#N [Compound I-326] | 3080
26 | COc1cc(Nc2ncc(F)c(NC3CC(C)(C)NC(C)(C)C3)n2)cc(OCCn2cccc2)c1 [Compound I-438] | 300
27 | COC(=O)CCN1C(C)(C)CC(Nc2nc(Nc3ccc(OC)c(Cl)c3)ncc2F)CC1(C)C [Compound I-293] | 2190

Same assay, conditions: T-cell, anti-CD3+CD28 stimulation, 24 hours

Row | Compound | IC50 [nM]
28 | CN1C(C)(C)CC(N(Cc2ccccc2)c2nc(Nc3ccc4c(c3)OCCO4)ncc2F)CC1(C)C [II-86] | 1260

Same assay, conditions: anti-CD3+CD28 stimulation, 24 hours

Row | IC50 [nM] | Compound
29 | 695 | CCN1C(=O)C(C)(C)S(=O)(=O)c2cc(Nc3ncc(F)c(NC4CC(C)(C)N(C)C(C)(C)C4)n3)ccc21 [II-66]
30 | 2220 | COc1cc(Nc2ncc(F)c(NC3CCN(Cc4ccncc4)CC3)n2)cc(-n2nnnc2C)c1 [III-10, 5-fluoro-N2-[3-methoxy-5-(5-methyl-1H-tetrazol-1-yl)]phenyl-N4-[1-(pyridin-4-yl)methylpiperidin-4-yl]-2,4-pyrimidinediamine]

More lines, now with the values behind:

Row | Compound | IC50 [nM]
31 | CN1C(C)(C)CC(Nc2nc(Nc3ccc(C#N)cc3)ncc2F)CC1(C)C [Compound I-25] | 4890
32 | CN1C(C)(C)CC(Nc2nc(Nc3cc(OCC(F)(F)F)cc(OCC(F)(F)F)c3)ncc2C#N)CC1(C)C [Compound I-411] | 280
33 | CC1CN(c2ccc(Nc3ncc(F)c(NC4CC(C)(C)N(C)C(C)(C)C4)n3)cc2C(F)(F)F)CC(C)O1 (stereo not shown) [Compound I-225] | 755
34 | CN1C(C)(C)CC(Nc2nc(Nc3cnc(N4CCOCC4)c(C(F)(F)F)c3)ncc2F)CC1(C)C [Compound I-271] | 670
35 | CN1C(C)(C)CC(Nc2nc(Nc3cccc(-c4ccncc4)c3)ncc2F)CC1(C)C [Compound I-79] | 552
36 | CN1C(C)(C)CC(Nc2nc(Nc3ccc(N4CCN(S(C)(=O)=O)CC4)c(C(F)(F)F)c3)ncc2F)C1(C)C (stereo not shown) [Compound I-286] | 2420
37 | CN1C(C)(C)CC(Nc2nc(Nc3ccc(Cl)c(C#N)c3)ncc2C(F)(F)F)CC1(C)C [Compound I-169] | 684
38 | CN1C(C)(C)CC(Nc2nc(Nc3ccc(Br)c(F)c3)ncc2F)CC1(C)C [Compound I-110] | 491
39 | CC(=O)N1C(C)(C)CC(Nc2nc(Nc3ccc(N4CCN(S(C)(=O)=O)CC4)c(C(F)(F)F)c3)ncc2F)CC1(C)C [Compound I-215] | 25500
40 | CCOC(=O)c1cnc(Nc2ccc(OC)c(Cl)c2)nc1NC1CC(C)(C)N(C)C(C)(C)C1 [Compound I-80] | 2690
41 | COc1cc(Nc2ncc(F)c(NC3CC(C)(C)N(C)C(C)(C)C3)n2)ccc1-n1cccc1 [Compound I-349] | 1040
42 | CN1C(C)(C)CC(Nc2nc(Nc3ccc(OC(F)(F)F)c(-c4cc5ccccc5s4)c3)ncc2F)CC1(C)C [Compound I-211] | 1700
43 | COCCOc1cc(Nc2ncc(F)c(NC3CC(C)(C)N(C)C(C)(C)C3)n2)ccc1OC [Compound I-413] | 6150
44 | CN1C(C)(C)CC(Nc2nc(Nc3ccc4c(c3)OCCO4)ncc2C#N)CC1(C)C [II-60] | 717
45 | CN1C(C)(C)CC(Nc2nc(Nc3ccc(F)c(-n4cnnn4)c3)ncc2F)CC1(C)C [Compound I-466] | 240
46 | CN1C(C)(C)CC(Nc2nc(Nc3ccc(OC(F)(F)F)c(Br)c3)ncc2F)CC1(C)C [Compound I-177] | 764
47 | CN1C(C)(C)CC(Nc2nc(Nc3cccc(C#N)c3)ncc2C(N)=O)CC1(C)C [Compound I-86] | 4990
48 | CN1CCN(c2c(F)cc(Nc3ncc(F)c(NC4CC(C)(C)N(C)C(C)(C)C4)n3)cc2F)CC1 [Compound I-40] | 461
49 | CCOC(=O)c1cnc(Nc2cccc(C#N)c2)nc1NC1CC(C)(C)N(C)C(C)(C)C1 [Compound I-81] | 28600

Row | Compound | IC50 [nM]
50 | CCCN1C(C)CN(c2cc(Nc3ncc(F)c(NC4CC(C)(C)N(C)C(C)(C)C4)n3)ccc2Cl)CC1C (stereo not shown) [Compound I-220] | 1050
51 | CN1C(C)(C)CC(Nc2nc(Nc3ccc(-c4cnn(C)c4)cc3)ncc2F)CC1(C)C [Compound I-144] | 1060
52 | COc1ccc(Nc2ncc(C(F)(F)F)c(NC3CC(C)(C)N(C)C(C)(C)C3)n2)cc1Cl [Compound I-32] | 328
53 | CN1C(C)(C)CC(Nc2nc(Nc3ccc(F)c(-c4ccncc4)c3)ncc2F)CC1(C)C [Compound I-191] | 700
54 | CC1(C)CC(Nc2nc(Nc3ccc(N4CCN(S(C)(=O)=O)CC4)c(Cl)c3)ncc2F)CC(C)(C)N1 [Compound I-258] | 399
55 | CCOc1ccc(Nc2ncc(F)c(NC3CC(C)(C)N(C)C(C)(C)C3)n2)cc1-n1nnnc1CC [Compound I-409] | 50
56 | CN1CCN(Cc2ccc(Nc3ncc(F)c(NC4CC(C)(C)N(C)C(C)(C)C4)n3)cc2C(F)(F)F)CC1 [Compound I-52] | 133
57 | CN1C(C)(C)CC(Nc2nc(Nc3ccc(N4CCN(S(C)(=O)=O)CC4)c(C(F)(F)F)c3)ncc2C(N)=O)CC1(C)C [Compound I-90] | 2860
58 | COc1cc(Nc2ncc(C#N)c(NC3CC(C)(C)NC(C)(C)C3)n2)cc(-n2cnnn2)c1 [Compound I-403] | 500
59 | COC(=O)N1CCN(c2cc(Nc3ncc(F)c(NC4CC(C)(C)N(C)C(C)(C)C4)n3)ccc2C(F)(F)F)CC1 [Compound I-214] | 540
60 | COc1ccc(Nc2ncc(F)c(NC3CCC(C)(C)N(C)C(C)(C)C3)n2)cc1OC (stereo not shown) [Compound I-267, 5-Fluoro-N2-[3,4-dimethoxy]phenyl-N4-(1,2,2,7,7-pentamethylazepan-4-yl)-2,4-pyrimidinediamine] | 11700
61 | CN1C(C)(C)CCC(Nc2nc(Nc3cc(Cl)cc(Cl)c3)ncc2F)CC1(C)C (stereo not shown) [Compound I-265, 5-Fluoro-N2-[3,5-dichloro]phenyl-N4-(1,2,2,7,7-pentamethylazepan-4-yl)-2,4-pyrimidinediamine] | 4320
62 | Cc1cnc(Nc2ccc(C#N)c(Cl)c2)nc1NC1CC(C)(C)N(C)C(C)(C)C1 [Compound I-28] | 455
63 | CN1C(C)(C)CC(Nc2nc(Nc3ccc(OC(F)(F)F)c(-c4ccncc4)c3)ncc2F)CC1(C)C [Compound I-207] | 402
64 | COc1ccc(Nc2ncc(F)c(NC3CC(C)(C)N(C)C(C)(C)C3)n2)cc1-c1cccnc1 [Compound I-194] | 804
65 | COc1cc(Nc2ncc(C(N)=O)c(NC3CC(C)(C)NC(C)(C)C3)n2)cc(-n2nnnc2C)c1 [Compound I-387] | 3470
66 | COc1ccc(Nc2ncc(F)c(NC3CC(C)(C)N(C)C(C)(C)C3)n2)cc1OCc1ccncc1 [Compound I-417] | 2670
67 | CN1CCC(c2ccc(Nc3ncc(F)c(NC4CC(C)(C)N(C)C(C)(C)C4)n3)cc2)CC1 [Compound I-221] | 1270
